Target: recombinant human PCSK9 (Homo sapiens, UniProt Q8NBP7)
Assay: Direct binding measurement by backscatter interferometry
Details: 6-point binding curve, ±8 nM, r^2 of 0.86
Method: Direct binding was measured using backscatter interferometry, which has been previously described in “Interferometric detection system and method” (EP 1210581), “Free solution measurement of molecular interactions by backscattering interferometry” (WO 2009039466), “Temperature-stable interferometer” (WO 2009076372), and “Improved event detection for back-scattering interferometry” (WO 2013158300); which are incorporated herein in their entirety by reference.

Chain of recombinant human PCSK9 (Q8NBP7 153-692): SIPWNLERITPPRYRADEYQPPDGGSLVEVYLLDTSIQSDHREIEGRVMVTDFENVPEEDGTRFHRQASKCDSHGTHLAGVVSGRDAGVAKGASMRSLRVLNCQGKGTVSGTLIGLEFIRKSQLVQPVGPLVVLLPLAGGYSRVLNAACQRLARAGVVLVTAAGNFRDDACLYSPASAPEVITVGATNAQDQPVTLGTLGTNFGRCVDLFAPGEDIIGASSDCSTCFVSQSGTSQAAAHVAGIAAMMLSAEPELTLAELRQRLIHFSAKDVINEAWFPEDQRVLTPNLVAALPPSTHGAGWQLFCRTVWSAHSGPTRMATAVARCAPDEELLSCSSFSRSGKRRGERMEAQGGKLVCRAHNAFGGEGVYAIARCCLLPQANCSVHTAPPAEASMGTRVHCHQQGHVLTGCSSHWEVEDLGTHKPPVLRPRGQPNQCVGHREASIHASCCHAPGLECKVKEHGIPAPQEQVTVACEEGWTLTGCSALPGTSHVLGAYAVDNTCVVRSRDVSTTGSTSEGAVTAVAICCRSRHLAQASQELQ

Kd: 24 nM
SMILES: C/C(=N\Nc1nnn[nH]1)C(=O)N1CCC(c2ccccc2)CC1 [SRX200, (E)-2-(2-(1H-tetrazol-5-yl)hydrazono)-1-(4-phenylpiperidin-1-yl)propan-1-one]
